Measurements published in ChEMBL document CHEMBL2413045, “Synthesis, self-aggregation and biological properties of alkylphosphocholine and alkylphosphohomocholine derivatives of cetyltrimethylammonium bromide, cetylpyridinium bromide, benzalkonium bromide (C16) and benzethonium chloride” (Eur J Med Chem, 2013).
Values after ≈ are worked out from the molar mass of the structure shown.

How the values were obtained:
CCRF-CEM = test: Cytotoxicity against human CCRF-CEM cells after 72 hrs by MTT assay; assay type: functional, cell-based
HUVEC = test: Cytotoxicity against HUVEC after 72 hrs by MTT assay; assay type: ADME, cell-based; settings: Homo sapiens
Acanthamoeba lugdunensis [1] = test: Amoebicidal activity against Acanthamoeba lugdunensis clinical isolate AcaVNAK02 assessed as minimum trophocidal concentration after 48 hrs by trypan blue exclusion assay; assay type: functional; settings: clinical isolate AcaVNAK02, 48 h
MCF7 [2] = test: Cytotoxicity against human MCF7 cells after 72 hrs by MTT assay; assay type: functional, cell-based; settings: MCF7, 72 h
MDA-MB-231 = test: Cytotoxicity against human MDA-MB-231 cells after 72 hrs by MTT assay; assay type: functional, cell-based; settings: MDA-MB-231, 72 h
Candida albicans [3] = test: microbe, parasite or virus in culture; assay type: functional; settings: ATCC 60193, 48 h
Description: (§1) Antimycotic activity against Candida albicans ATCC 60193 after 48 hrs by NCCLS M-27 microdilution assay

Acanthamoeba quina [4] = test: Amoebicidal activity against Acanthamoeba quina clinical isolate AcaVNAK03 assessed as minimum trophocidal concentration after 48 hrs by trypan blue exclusion assay; assay type: functional; settings: clinical isolate AcaVNAK03, 48 h
A549 [5] = test: Cytotoxicity against human A549 cells after 72 hrs by MTT assay; assay type: functional, cell-based; settings: A549, 72 h
HeLa = test: Cytotoxicity against human HeLa cells after 72 hrs by MTT assay; assay type: functional, cell-based
MCF7 [6] = test: Selectivity index, ratio of IC50 for HUVEC to IC50 for human MCF7 cells
A549 [7] = test: Selectivity index, ratio of IC50 for HUVEC to IC50 for human A549 cells
Acanthamoeba lugdunensis [8] = settings: clinical isolate AcaVNAK02
Candida albicans [9] = settings: ATCC 60193
Description: as §1

Acanthamoeba quina [10] = settings: clinical isolate AcaVNAK03
Candida albicans [11] = test: Ratio of cetylpyridinium bromide MIC to compound MIC for Candida albicans ATCC 60193; assay type: functional

Row | Compound | IC50 (CCRF-CEM) [µM] | IC50 (HUVEC) [µM] | MTC (Acanthamoeba lugdunensis [1]) [µM] | IC50 (MCF7 [2]) [µM] | IC50 (MDA-MB-231) [µM] | MIC (Candida albicans [3]) [µM] | MTC (Acanthamoeba quina [4]) [µM] | IC50 (A549 [5]) [µM] | IC50 (HeLa) [µM] | Ratio IC50 (MCF7 [6]) | Ratio IC50 (A549 [7]) | MIC (Acanthamoeba lugdunensis [8]) [µM] | MIC (Candida albicans [9]) [µM] | MIC (Acanthamoeba quina [10]) [µM] | Ratio (Candida albicans [11])
1 | CC(C)(C)CC(C)(C)c1ccc(OCCOP(=O)([O-])OCC[N+](C)(C)Cc2ccccc2)cc1 | > 100 | > 100 | 250 | > 100 | > 100 | > 100 | 500 | > 100 | > 100 |  |  |  |  |  | 
2 | CCCCCCCCCCCCCCCCOP(=O)([O-])OCC[n+]1ccccc1 | 22.9 | 94 | 62.5 | 8.1 | 45.8 | 4 (≈ 1.71 µg/mL) | 62.5 | 9.9 | 52.1 | >10 |  |  |  |  | 
3 | CCCCCCCCCCCCCCCCOP(=O)([O-])OCC[N+](C)(C)C [MILTEFOSINE] | 20.7 | > 100 | 250 | 18.9 | 34.8 | 2.2 (≈ 0.897 µg/mL) | 125 | 8.6 | 74.4 |  | >10 |  |  |  | 
4 | CCCCCCCCCCCCCCCCOP(=O)([O-])OCC[N+](C)(C)Cc1ccccc1 | 13.8 | > 100 | > 500 | 76 | 44.3 | 8.1 (≈ 3.92 µg/mL) | > 500 | 73.2 | 55.7 |  |  |  |  |  | 
5 | Cetyltrimethylammonium bromide |  |  |  |  |  |  |  |  |  |  |  | 15.6 | 22 | 15.6 | 
6 | CCCCCCCCCCCCCCCCOP(=O)([O-])OCCC[N+](C)(C)Cc1ccccc1 | 62.2 | > 100 | 125 | 57.6 | 43.7 | 7.9 (≈ 3.93 µg/mL) | 250 | 57.6 | 62.1 |  |  |  |  |  | 
7 | CCCCCCCCCCCCCCCC[N+](C)(C)Cc1ccccc1.[Br-] | 0.9 | 7.5 | 15.6 | 1 | 3.5 | 4.5 | 15.6 | 0.63 | 2.8 |  | >10 |  |  |  | 2
8 | CC(C)(C)CC(C)(C)c1ccc(OCCOP(=O)([O-])OCCC[N+](C)(C)Cc2ccccc2)cc1 | > 100 | > 100 | 250 | > 100 | > 100 | > 100 | 125 | > 100 | > 100 |  |  |  |  |  | 
9 | CCCCCCCCCCCCCCCCOP(=O)([O-])OCCC[n+]1ccccc1 | 34.6 | > 100 | 250 | 50.4 | 59.9 | 2.1 (≈ 0.927 µg/mL) | 15.6 | 61.6 | 74.7 |  |  |  |  |  | 
10 | CCCCCCCCCCCCCCCCOP(=O)([O-])OCCC[N+](C)(C)C | 6.2 | > 100 | 125 | 45.2 | 61.7 | 18.2 (≈ 7.67 µg/mL) | 62.5 | 41.5 | 84.4 |  |  |  |  |  | 
